Measured values reported in patent publication US20080194646A1, “Methods For Avoiding Edema in the Treatment of Metabolic, Inflammatory, and Cardiovascular Disorders” (priority 2005, published 2008).

Experiments:
C57BL/6j ob/ob Mice [1] = test: glucose lowering activity of halofenate analogs in ob/ob mice (Example 14); assay type: in vivo; settings: for plasma glucose concentrations vs vehicle: Student unpaired t-test; for Glucose 6 hours / Glucose 30 hours / Glucose 54 hours: plasma glucose; for Predose Glucose: baseline before dosing
Procedure: Male, 8-9 weeks old, C57BL/6J ob/ob mice were purchased from The Jackson Laboratory (Bar Harbor, Me., USA). Animals were housed (4-5 mice/cage) under standard laboratory conditions at 22±3° C. temperature and 50±20% relative humidity, and were maintained on a diet of Purina rodent chow and water ad libitum. Prior to treatment, blood was collected from the tail vein of each animal. Mice that had non-fasting plasma glucose levels between 250 and 500 mg/dl were used. Each treatment group consisted of 8-10 mice that were distributed so that the mean glucose levels were equivalent in each group at the start of the study. Mice were dosed orally by gavage once a day for 1-3 days with either vehicle, (−) halofenic acid, (+) analog 14, 29, 33, 34, 35, 36, 37, or 38 at 125 mg/kg or (−) analog 29, 36, 37 or 38 at 150 mg/kg. Compounds were delivered in a liquid formulation containing 5% (v/v) dimethyl sulfoxide (DMSO), 1% (v/v) tween 80 and 0.9% (w/v) methylcellulose. The gavage volume was 10 ml/kg. Blood samples were taken at 6 hours after the each dose and analyzed for plasma glucose. Food intake and body weight were measured daily. Plasma glucose concentrations were determined colorimetrically using glucose oxidase method (Sigma Chemical Co, St. Louis, Mo., USA). Significant difference between groups (comparing drug-treated to vehicle-treated) was evaluated using the Student unpaired t-test.

C57BL/6j ob/ob Mice [2] = test: anti-diabetic activity in C57BL/6j ob/ob mice (Example 20); assay type: in vivo; settings: oral gavage once a day for 1-4 days; for minimal effective dose: Mus musculus, read-out: Potency
Procedure: The anti-diabetic activities of the compounds were evaluated in the C57BL/6j ob/ob Mice model. Male, 7-9 weeks old, C57BL/6J ob/ob mice were purchased from The Jackson Laboratory (Bar Harbor, Me., USA). Animals were housed (4-5 mice/cage) under standard laboratory conditions at 22±3° C. temperature and 50±20% relative humidity, and were maintained on a diet of Purina rodent chow and water ad libitum. Prior to treatment, blood was collected from the tail vein of each animal. Mice that had non-fasting plasma glucose levels between 250 and 500 mg/dl were used. Each treatment group consisted of 8-10 mice that were distributed so that the mean glucose levels were equivalent in each group at the start of the study. Mice were dosed orally by gavage once a day for 1-4 days with vehicle and one or more dose of test compound at a dose ranging from 5 to 125 mg/kg. Compounds were delivered in a liquid formulation containing 5% (v/v) dimethyl sulfoxide (DMSO), 1% (v/v) Tween 80® and 0.9% (w/v) methylcellulose. The gavage volume was 10 ml/kg. […] Food intake and body weight were measured daily. Plasma glucose concentrations were determined colorimetrically using a commercial glucose oxidase method (Sigma Chemical Co, St. Louis, Mo., USA). Significant difference between groups (comparing drug-treated to vehicle-treated) was evaluated using the Student unpaired t-test. Table 1 provides the relative potency of some selected compounds of the invention.

[3] = 125 mg/kg oral gavage once a day for 1-3 days
[4] = 125 mg/kg oral gavage once a day
[5] = group later dosed 125 mg/kg orally
[6] = glucose lowering, plasma glucose 6 hours after each dose
[7] = 150 mg/kg oral gavage, single dose
[8] = group later dosed 150 mg/kg orally

CC(=O)NCCOC(=O)C(Oc1cccc(C(F)(F)F)c1)c1ccc(F)cc1 (racemic) [(±)Analog 14]
plasma glucose concentrations vs vehicle (C57BL/6j ob/ob Mice [1]; [3]): significantly lowered plasma glucose concentrations at 6, 30 and 54 hours | Glucose 6 hours (C57BL/6j ob/ob Mice [1]; [4]): 328.9 ± 34.1 mg/dL | Glucose 30 hours (C57BL/6j ob/ob Mice [1]; [4]): 267.0 ± 21.3 mg/dL | Glucose 54 hours (C57BL/6j ob/ob Mice [1]; [4]): 293.0 ± 29.4 mg/dL | Predose Glucose (C57BL/6j ob/ob Mice [1]; [5]): 361.0 ± 17.1 mg/dL

CC(=O)NCCOC(=O)C(Oc1cccc(C(F)(F)F)c1)c1ccc(Br)cc1 (racemic) [(±)Analog 29]
plasma glucose concentrations vs vehicle (C57BL/6j ob/ob Mice [1]; [3]): significantly lowered plasma glucose concentrations at 6, 30 and 54 hours | Glucose 6 hours (C57BL/6j ob/ob Mice [1]; [4]): 299.7 ± 24.5 mg/dL | Glucose 30 hours (C57BL/6j ob/ob Mice [1]; [4]): 237.4 ± 14.9 mg/dL | Glucose 54 hours (C57BL/6j ob/ob Mice [1]; [4]): 293.3 ± 9.7 mg/dL | Predose Glucose (C57BL/6j ob/ob Mice [1]; [5]): 387.1 ± 16.0 mg/dL

CCCCOC(=O)C(Oc1cccc(C(F)(F)F)c1)c1ccc(Cl)cc1 (racemic) [(±)Analog 33]
plasma glucose concentrations vs vehicle (C57BL/6j ob/ob Mice [1]; [3]): significantly lowered plasma glucose concentrations at 6 and 54 hours | Glucose 6 hours (C57BL/6j ob/ob Mice [1]; [4]): 227.5 ± 13.2 mg/dL | Glucose 30 hours (C57BL/6j ob/ob Mice [1]; [4]): 298.0 ± 15.3 mg/dL | Glucose 54 hours (C57BL/6j ob/ob Mice [1]; [4]): 286.6 ± 9.9 mg/dL | Predose Glucose (C57BL/6j ob/ob Mice [1]; [5]): 292.0 ± 19.1 mg/dL

CN(C)CCOC(=O)C(Oc1cccc(C(F)(F)F)c1)c1ccc(Cl)cc1 (racemic) [(±)Analog 35]
plasma glucose concentrations vs vehicle (C57BL/6j ob/ob Mice [1]; [3]): significantly lowered plasma glucose concentrations at 30 and 54 hours | Glucose 6 hours (C57BL/6j ob/ob Mice [1]; [4]): 319.6 ± 26.7 mg/dL | Glucose 30 hours (C57BL/6j ob/ob Mice [1]; [4]): 276.8 ± 17.6 mg/dL | Glucose 54 hours (C57BL/6j ob/ob Mice [1]; [4]): 286.2 ± 31.5 mg/dL | Predose Glucose (C57BL/6j ob/ob Mice [1]; [5]): 387.0 ± 18.0 mg/dL

O=C(NCCOC(=O)C(Oc1cccc(C(F)(F)F)c1)c1ccc(Cl)cc1)c1ccccc1 (racemic) [(±)Analog 36]
plasma glucose concentrations vs vehicle (C57BL/6j ob/ob Mice [1]; [3]): significantly lowered plasma glucose concentrations at 30 and 54 hours | Glucose 6 hours (C57BL/6j ob/ob Mice [1]; [4]): 300.5 ± 27.3 mg/dL | Glucose 30 hours (C57BL/6j ob/ob Mice [1]; [4]): 249.7 ± 8.6 mg/dL | Glucose 54 hours (C57BL/6j ob/ob Mice [1]; [4]): 272.2 ± 18.4 mg/dL | Predose Glucose (C57BL/6j ob/ob Mice [1]; [5]): 329.7 ± 17.6 mg/dL

NC(=O)COC(=O)C(Oc1cccc(C(F)(F)F)c1)c1ccc(Cl)cc1 (racemic) [(±)Analog 37]
plasma glucose concentrations vs vehicle (C57BL/6j ob/ob Mice [1]; [3]): significantly lowered plasma glucose concentrations at 54 hours | Glucose 6 hours (C57BL/6j ob/ob Mice [1]; [4]): 345.4 ± 19.7 mg/dL | Glucose 30 hours (C57BL/6j ob/ob Mice [1]; [4]): 312.5 ± 21.7 mg/dL | Glucose 54 hours (C57BL/6j ob/ob Mice [1]; [4]): 285.1 ± 14.7 mg/dL | Predose Glucose (C57BL/6j ob/ob Mice [1]; [5]): 387.4 ± 18.8 mg/dL

CN(C)C(=O)COC(=O)C(Oc1cccc(C(F)(F)F)c1)c1ccc(Cl)cc1 (racemic) [(±)Analog 38]
plasma glucose concentrations vs vehicle (C57BL/6j ob/ob Mice [1]; [3]): significantly lowered plasma glucose concentrations at 6, 30 and 54 hours | Glucose 6 hours (C57BL/6j ob/ob Mice [1]; [4]): 303.2 ± 18.2 mg/dL | Glucose 30 hours (C57BL/6j ob/ob Mice [1]; [4]): 245.6 ± 15.6 mg/dL | Glucose 54 hours (C57BL/6j ob/ob Mice [1]; [4]): 243.1 ± 10.6 mg/dL | Predose Glucose (C57BL/6j ob/ob Mice [1]; [5]): 329.4 ± 18.9 mg/dL

O=C(O)C(Oc1ccc(C(F)(F)F)cc1)c1cccc(C(F)(F)F)c1 (racemic) [Compound 39, (4-trifluoromethyl-phenoxy)-(3-trifluoromethyl-phenyl)-acetic acid]
minimal effective dose (C57BL/6j ob/ob Mice [2]; [6]): ≤ 125 mg/kg | Insulin Level compared with vehicle (C57BL/6j ob/ob Mice [2]): Lower

CC(=O)NCCOC(=O)C(Oc1cccc(C(F)(F)F)c1)c1ccc(Br)cc1 (single isomer, unassigned; (-)) [(−)Analog 29]
plasma glucose concentrations vs vehicle (C57BL/6j ob/ob Mice [1]; [7]): significantly reduced plasma glucose concentrations at 6 hours | Glucose 6 hours (C57BL/6j ob/ob Mice [1]; [7]): 333.5 ± 16.1 mg/dL | Predose Glucose (C57BL/6j ob/ob Mice [1]; [8]): 372.2 ± 17.1 mg/dL

O=C(NCCOC(=O)C(Oc1cccc(C(F)(F)F)c1)c1ccc(Cl)cc1)c1ccccc1 (single isomer, unassigned; (-)) [(−)Analog 36]
plasma glucose concentrations vs vehicle (C57BL/6j ob/ob Mice [1]; [7]): significantly reduced plasma glucose concentrations at 6 hours | Glucose 6 hours (C57BL/6j ob/ob Mice [1]; [7]): 281.1 ± 18.2 mg/dL | Predose Glucose (C57BL/6j ob/ob Mice [1]; [8]): 373.2 ± 15.5 mg/dL

NC(=O)COC(=O)C(Oc1cccc(C(F)(F)F)c1)c1ccc(Cl)cc1 (single isomer, unassigned; (-)) [(−)Analog 37]
plasma glucose concentrations vs vehicle (C57BL/6j ob/ob Mice [1]; [7]): significantly reduced plasma glucose concentrations at 6 hours | Glucose 6 hours (C57BL/6j ob/ob Mice [1]; [7]): 271.7 ± 22.5 mg/dL | Predose Glucose (C57BL/6j ob/ob Mice [1]; [8]): 373.4 ± 16.1 mg/dL

CN(C)C(=O)COC(=O)C(Oc1cccc(C(F)(F)F)c1)c1ccc(Cl)cc1 (single isomer, unassigned; (-)) [(−)Analog 38]
plasma glucose concentrations vs vehicle (C57BL/6j ob/ob Mice [1]; [7]): significantly reduced plasma glucose concentrations at 6 hours | Glucose 6 hours (C57BL/6j ob/ob Mice [1]; [7]): 251.2 ± 23.6 mg/dL | Predose Glucose (C57BL/6j ob/ob Mice [1]; [8]): 373.4 ± 16.1 mg/dL

O=C(O)C(Oc1ccc(C(F)(F)F)cc1)c1cccc(C(F)(F)F)c1 (stereo not drawn) [(+)−39, (4-trifluoromethyl-phenoxy)-(3-trifluoromethyl-phenyl)-acetic acid]
minimal effective dose (C57BL/6j ob/ob Mice [2]; [6]): ≤ 125 mg/kg

O=C(O)C(Oc1ccc(C(F)(F)F)cc1)c1cccc(C(F)(F)F)c1 (stereo not drawn) [(−)−39, (4-trifluoromethyl-phenoxy)-(3-trifluoromethyl-phenyl)-acetic acid]
Potency (C57BL/6j ob/ob Mice [2]; [6]): ++ (effective for glucose lowering at the dose of ≦125 mg/kg) | Insulin Level compared with vehicle (C57BL/6j ob/ob Mice [2]): Lower

O=C(O)C(Oc1cc(C(F)(F)F)cc(C(F)(F)F)c1)c1ccc(C(F)(F)F)cc1 (centres unmarked) [Compound 81]
Insulin Level compared with vehicle (C57BL/6j ob/ob Mice [2]): Lower
